Publication PMC9260506, “Identification of Highly Cross-Reactive Mimotopes for a Public T Cell Response in Murine Melanoma” (Frontiers in Immunology, 2022)

How the values were obtained:
[1] = target: 7PPG2 TCR, recombinant soluble (mouse) (UniProt P01849); assay: SPR; conditions: peptide-MHC
[2] = target: p15E peptide presented by H-2K^b, refolded pMHC (mouse | human | murine leukemia virus); assay: SPR
[3] = target: 7PPG4 TCR, recombinant soluble (mouse) (UniProt P01849); assay: SPR; conditions: peptide-MHC
[4] = tested on: 7PPG2-transduced 58^-/- T cells; assay: T cell activation, peptide-loaded DC2.4 co-culture, IL-2 ELISA (7PPG2); type: cell-based, murine; conditions: DC2.4 cells loaded with various peptide concentrations 2-3 h, 24 h co-culture
Experimental: (§1) T cell line generation: For creation of T cell lines, TCR alpha chain was linked to TCR beta chain by a P2A sequence, followed by EGFP fluorescent protein sequence, in the MP71 retroviral vector. 80% confluent HEK293-T cells were transfected with 2 μg of TCR plasmid and 1 μg pCL-Eco helper plasmid with 6 μg (3× DNA mass) PEI (Santa Cruz Biotech) to create retrovirus. 2 days later, the supernatant was then used to transduce CD8^+ 58^-/^- cells with 0.8 μg/mL polybrene (Santa Cruz Biotech). Cells were spinfected at 1000×g and 32°C for 1.5 hours. 2 days later, transduction was assessed by expression of EGFP and by staining with an antibody against murine TCR β chain. If necessary, cells were sorted on EGFP on a FACSAria (BD) to obtain a >95% transduced population.
(§2) DC co-culture: 25,000 DC2.4 cells per well were incubated with various concentrations of peptide in 100 μL RPMI complete media for 2-3 hours before the addition of T cells. 25,000 T cells per well were added in 100 μL RPMI complete media in 96 well plates.
(§3) After 24 hours, plates were spun down at 500×g for 5 minutes, and 2×100 μL samples of supernatant were saved and frozen at -80°C. T cell activation was assessed using mouse IL-2 ELISA kits (Invitrogen), with samples diluted 1:2 - 1:20 for comparison to the standard curve. Absorbance values were measured with a Tecan Infinite m200 Pro plate reader.

[5] = tested on: 7PPG4-transduced 58^-/- T cells; assay: T cell activation, peptide-loaded DC2.4 co-culture, IL-2 ELISA (7PPG4); type: cell-based, murine; conditions: DC2.4 cells loaded with various peptide concentrations 2-3 h, 24 h co-culture
Experimental: as §1, §2, §3

[6] = tested on: B16F10 melanoma cells; assay: Prophylactic vaccination and B16F10 tumor challenge; type: in vivo, C57BL/6 mice
Experimental: (§4) MSA and TTR long peptide fusions were produced in house by the Wittrup lab as previously described ([23]). Long peptide-amphiphile fusion vaccines were obtained from Northwestern University Peptide Synthesis Core (p15E and mimotopes) or produced in house by the Irvine lab as previously described (OVA amph) ([16], [22]). Lipo-CpG was produced in house by the Irvine lab as previously described ([16], [22]). 5 nmol of vaccine and 1.24 nmol of lipo-CpG per injection were used in a volume of 100 μL PBS, sterile filtered, and injected subcutaneously at the tail base, 50 μL per side, using 31G insulin syringes. Mice were primed and then boosted at 2 and 4 weeks following prime (n=5 per group).
Two weeks after the second vaccine boost, 10^5 B16F10 cells in 100 μL PBS were injected subcutaneously on the right flank using 29G insulin syringes. Tumor areas were calculated by multiplying length and width taken by caliper measurement every other day beginning three days post-tumor inoculation. Mice were euthanized when tumor area exceeded 100 mm^2.

[7] = tested on: CD8^+ T cells; assay: Intracellular cytokine staining of peripheral blood after vaccination; type: in vivo, C57BL/6 mice; conditions: for CD8^+ T cell reactivity to p15E stimulation (ICS): Figure 7C
Excerpt: as §4, with “5 nmol of vaccine and 1.24 nmol of lipo-CpG per injection were used in a volume of 100 μL PBS, sterile filtered, and injected subcutaneously at the tail base, 50 μL per side, using 31G insulin syringes.” left out
One week following each vaccine boost, blood samples were drawn retro-orbitally from each mouse. 50-80 μL was used per well for stimulation with peptide, and excess blood from each group was pooled and used for a positive and negative control well per group. Red blood cells were lysed with ACK lysis buffer (Thermo), and then cells were washed once with FACS buffer. In 100 μL/well RPMI complete media, sample wells were stimulated with 10 μg/mL peptide (p15E, 7PPG2-mim6, or 7PPG4-mim2), and positive control wells were stimulated with 10 ng/mL PMA and 10 μg/mL ionomycin. Cells were stimulated for two hours before 1 uL/well brefeldin A (BD GolgiPlug) was added, and then cells were incubated for an additional four hours. Cells were washed twice with cold PBS and then stained with Zombie Aqua 1:1000 and Fc block 1:100 in 100 μL/well PBS for 15 minutes at room temperature. Cells were then stained with CD8 APC 1:100 in 100 μL/well FACS buffer for 20 minutes at room temperature. Cells were fixed and permeabilized using 100 μL/well of CytoFix/CytoPerm solution (BD) for 20 minutes at 4°C. Following two washes with Perm/Wash buffer (BD), cells were stained with IFN-γ PE and TNF-α AF488 1:75 each in 50 μL/well Perm/Wash buffer for 30 minutes at 4°C. Following two washes with FACS buffer, samples were run on an LSR II (BD) or Cytoflex (Beckman Coulter) and data analyzed in FlowJo v10. Outliers were identified using the ROUT method with Q = 1% (GraphPad Prism 9).

[8] = tested on: p15E-pulsed splenocytes; assay: In vivo killing assay of peptide-pulsed donor splenocytes; set-up: species or system C57BL/6 mice; conditions: day 36 spleens, 24 h after i.v. injection of about 1:1 CFSE-dyed p15E-pulsed and violet-dyed OVA-pulsed splenocytes; amphiphile vaccines days 0, 14, 28; N=3 mice/group
Experimental: as §4
Experimental mice were vaccinated as described above. A separate group of age-matched female C57BL/6 donor mice were euthanized and spleens removed. In a sterile hood, single cell suspensions were created by mashing spleens through 70 μm mesh filters. Red blood cells were lysed using ACK lysis buffer (Thermo), and cells were washed twice with PBS. […] 24 hours later, experimental mice were euthanized and splenocytes analyzed to compare ratios of CFSE-dyed to Violet-dyed cells. Samples were run on a Cytoflex and data analyzed in FlowJo v10.

[9] = target: 7PPG4 TCR; assay: Steady-state surface plasmon resonance, pMHC on immobilized 7PPG4 TCR; type: binding, mouse; conditions: Figure 5C
Excerpt: Recombinant soluble TCRs used for yeast library selections and surface plasmon resonance experiments were produced using a baculovirus expression system in Hi5 insect cells. TCR alpha chain extracellular domain sequences were cloned into pAcGP67a vector containing a 3C protease site ([…]) followed by an acidic leucine zipper, AviTag biotinylation site ([…]), and poly-histidine tag (6×His). TCR beta chain extracellular domain sequences were cloned into pAcGP67a vector containing a 3C site followed by a basic leucine zipper and poly-histidine tag. 2 μg of each plasmid was transfected into SF9 insect cells with BestBac 2.0 linearized baculovirus DNA (Expression Systems) using Cellfectin II reagent (Invitrogen). SF9s were then infected with 1:1000 primary transfection supernatant to amplify the virus. Titration of alpha and beta chain viruses was performed to identify the optimal ratio of the two viruses for heterodimer formation. Protein was then produced by large scale infection of Hi5 cells as previously described ([10]). Briefly, secreted protein was purified using HisPur Ni-NTA resin (Thermo) for immobilized metal affinity chromatography (IMAC) and biotinylated overnight at 4°C using biotin (Avidity), ATP, and BirA ligase. […] Biotinylation efficiency was assessed by adding streptavidin (ThermoFisher) to ~2 ug of protein and running an SDS-PAGE gel. […]

7PPG4-mim2 mimotope () presented by H-2K^b, refolded pMHC (from UniProt P61769 21-119)
Kd [1]: 42 µM

7ELG1 TCR, recombinant soluble (from UniProt P01849)
Kd [2]: 39 µM

7PPG3 TCR, recombinant soluble (from UniProt P01849)
Kd [2]: 20 µM

7PPG2-mim6 mimotope () presented by H-2K^b, refolded pMHC (from UniProt P61769 21-119)
Kd [1]: 19 µM
Kd [3]: > 100 µM

KSPWFTTL [p15E, previously identified MLVenv peptide presented by the class I MHC H-2K^b]
T cell activation (IL-2 secretion) [4]: activated in a dose-dependent manner
T cell activation (IL-2 secretion) [5]: activated in a dose-dependent manner
Survival after tumor challenge ([6]; first experiment, 1×10^5 B16F10 cells six weeks after prime, amphiphile vaccines, euthanized at tumor area >100 mm^2, N=5, Figure 7F): identical survival curves
CD8^+ T cell reactivity to p15E stimulation (ICS) ([7]; days 21 and 35, 5 nmol amphiphile vaccine + lipo-CpG, compared with adjuvant-only control): did not show any significant reactivity compared to the control group
Fraction of p15E-pulsed cells remaining [8]: little difference in fraction of p15E-pulsed cells compared to the control group

SIYRYYGL [2C TCR cognate antigen, control peptide]
T cell activation (IL-2 secretion) [4]: no activation
T cell activation (IL-2 secretion) [5]: no activation

7PPG2 TCR, recombinant soluble (from UniProt P01849)
Kd [2]: 23 µM

VSPWFNTL [7PPG2-mim6, p15E mimotope identified from yeast display pMHC library selection with 7PPG2 TCR]
T cell activation (IL-2 secretion) [4]: much more potently than p15E
Kd ([9]; mimotope or p15E peptide displayed by H-2K^b as analyte, immobilized TCR, 25°C, steady state): > 100 µM
CD8^+ T cell reactivity to 7PPG4-mim2 stimulation (ICS) ([7]; amphiphile vaccine + lipo-CpG, days 21 and 35, Supplementary Figure 7B): minimal reactivity to 7PPG4-mim2

KSPWFITL [7PPG4-mim2, p15E mimotope identified from yeast display pMHC library selection with 7PPG4 TCR]
T cell activation (IL-2 secretion) [5]: much more potently than p15E
Autoreactivity in vivo ([6]; all in vivo studies with the amphiphile vaccine): did not show evidence of deleterious autoreactivity
affinity for 7PPG4 relative to p15E ([9]; SPR, 5 μM compared to 26 μM): five-fold higher affinity
CD8^+ T cell reactivity to 7PPG2-mim6 stimulation (ICS) ([7]; amphiphile vaccine + lipo-CpG, days 21 and 35, Supplementary Figure 7A): some cross reactivity to 7PPG2-mim6 stimulation
CD8^+ T cells reacting to 7PPG4-mim2 stimulation (ICS) ([7]; day 21, 5 nmol amphiphile vaccine + lipo-CpG, Supplementary Figure 7B, N=5): 40 % of CD8^+ T cells
CD8^+ T cell reactivity to p15E stimulation (ICS) ([7]; day 35, 5 nmol amphiphile vaccine + 1.24 nmol lipo-CpG, boosts days 14 and 28, N=5): 40%

SIINFEKL [OVA]
CD8^+ T cell reactivity to OVA (ICS) ([7]; killing-assay study, day 35, OVA amphiphile vaccine day 0, boosts days 14 and 28, N=3 mice/group, Supplementary Figure 6B): 20%
Fraction of p15E-pulsed cells remaining [8]: high fraction of p15E-pulsed cells remaining
